Reference: patent US5712109A, “Antifungal agent produced by arthrinium arundinis ATCC 74359” (Merck & Co., Inc., priority 1997, dated 1998)
≈ marks a conversion by molar mass, not a printed value.

How the values were obtained:
Format in all cases: cell-based
[1] = test system: Aspergillus fumigatus (MY4839); experiment: broth microdilution antifungal assay, Aspergillus fumigatus MY4839
Protocol: (§1) In the microbroth dilution assay, microorganisms were selected by streaking a yeast culture on Sabouraud dextrose agar (SDA) and incubating for 24-48 hours at 35°-37° C. Three to five characteristic colonies were selected and transferred to a fresh plate and incubated under similar conditions. From the regrowth, 3 to 5 colonies were selected and suspended in 10 milliliters of YM broth (Difco) and incubated for 4 hours at 35°-37° C. shaking at 225 rpm. The 4 hour broth cultures were adjusted optically to 86% transmission resulting in a concentration of 1-5×10^6 cfu/ml which was further diluted 1:100 in YNBD (yeast nitrogen base with 1% dextrose) to obtain a concentration of 1-5×10^4 cfu/ml for use as inocula. […]
(§2) The plates containing the diluted compounds were then inoculated with 75 μl/well of the appropriate microorganism and incubated for 48 hours at 35°-37° C. with MIC (minimum inhibitory concentration) determinations carded out after 24 hours of incubation (except Cryptococcus strains which are read at 48 hours). […]
(§3) No MFC values are indicated for Aspergillus furnigatus since colony counts are unreliable with filamentous species. […] The MEC is scored macroscopically by direct observation of the plate wells after 24 hours and reflects microscopic alterations in cell morphology (Kurtz et al, AAC 1994 38:1480-1489).

[2] = test system: Saccharomyces cerevisiae (MY2140); experiment: broth microdilution antifungal assay, Saccharomyces cerevisiae MY2140
Protocol: as §1, §2
(§4) After recording M/Cs at 24 hours, the microtiter plates were shaken gently to resuspend the cells. […] For Cryptococcus neoformans, SDA plates were inoculated at 48 hours after recording MICs and incubated 48 hours before reading the MFG. […]

[3] = test system: Aspergillus fumigatus (MY5668); experiment: broth microdilution antifungal assay, Aspergillus fumigatus MY5668
Protocol: as §1, §2, §3

panel of fungi = experiment: broth microdilution antifungal assay, panel of fungi, comparison with amphotericin B; conditions: MIC/MFC broth microdilution assay
Protocol: In the microbroth dilution assay, microorganisms were selected by streaking a yeast culture on Sabouraud dextrose agar (SDA) and incubating for 24-48 hours at 35°-37° C. Three to five characteristic colonies were selected and transferred to a fresh plate and incubated under similar conditions. From the regrowth, 3 to 5 colonies were selected and suspended in 10 milliliters of YM broth (Difco) and incubated for 4 hours at 35°-37° C. shaking at 225 rpm. […]
as §2, §4, §3

filamentous fungi = experiment: agar plate inhibition zone test against filamentous fungi; conditions: agar plates, 28° C. or 37° C., 24 hours
Protocol: The compound is also useful for inhibiting the growth of filamentous fungi. Such use may be illustrated in the following tests with Aspergillus flavus, Fusarium oxysporum, Ustilago zeae and the like. Inocula for filamentous fungi are prepared by scraping the surface of stock plates maintained on potato dextrose agar with a moistened sterile dacron swab. The spores and mycelia are then suspended in 10 milliliters of sterile potato dextrose broth and adjusted to 70 percent transmission at 660 nm. The samples to be tested for production of antifungal agent are applied directly to the agar plates as methanol solutions. When the sample to be tested is crude broth, it may be centrifuged prior to application. The assay plates are then incubated at either 28° C. or 37° C. for 24 hours. Following incubation, the inhibition zones are measured. Effects on growth are also noted as to appearance.

[4] = test system: Candida albicans (CLY539); experiment: broth microdilution antifungal assay, Candida albicans CLY539
Protocol: as §1, §2, §4

[5] = test system: Candida tropicalis (MY1124); experiment: broth microdilution antifungal assay, Candida tropicalis MY1124
Protocol: as §1, §2, §4

Candida albicans (CA2) = experiment: broth microdilution antifungal assay, Candida albicans CA2
Protocol: as §1, §2, §4

[6] = test system: Cryptococcus neoformans (MY2062); experiment: broth microdilution antifungal assay, Cryptococcus neoformans MY2062
Protocol: (§5) In the microbroth dilution assay, microorganisms were selected by streaking a yeast culture on Sabouraud dextrose agar (SDA) and incubating for 24-48 hours at 35°-37° C. Three to five characteristic colonies were selected and transferred to a fresh plate and incubated under similar conditions. From the regrowth, 3 to 5 colonies were selected and suspended in 10 milliliters of YM broth (Difco) and incubated for 4 hours at 35°-37° C. shaking at 225 rpm. The 4 hour broth cultures were adjusted optically to 86% transmission resulting in a concentration of 1-5×10^6 cfu/ml which was further diluted 1:100 in YNBD (yeast nitrogen base with 1% dextrose) to obtain a concentration of 1-5×10^4 cfu/ml for use as inocula.
(§6) The test compound was dissolved at 256 μg/ml in 10% DMSO and diluted 2× into the first well to achieve a concentration of 256 μg/ml at 5% DMSO in the first well. Compounds are subsequently serially diluted 2× and cell suspension is added to each well resulting in an additional 2× dilution of compound. 75 μl of said solution is delivered to each well in colunto 1 of a 96-well, U-bottomed plate. […]
as §4

[7] = test system: Candida tropicalis (MY1012); experiment: broth microdilution antifungal assay, Candida tropicalis MY1012
Protocol: as §1, §2, §4

[8] = test system: Candida albicans (MY1055); experiment: broth microdilution antifungal assay, Candida albicans MY1055
Protocol: as §1, §2, §4

[9] = test system: Cryptococcus neoformans (MY2061); experiment: broth microdilution antifungal assay, Cryptococcus neoformans MY2061
Protocol: as §5, §6, §4

[10] = test system: Candida guillermondii (MY1019); experiment: broth microdilution antifungal assay, Candida guillermondii MY1019
Protocol: as §1, §2, §4

[11] = test system: Candida pseudotropicalis (MY2099); experiment: broth microdilution antifungal assay, Candida pseudotropicalis MY2099; conditions: Kluyveromyces marxianus
Protocol: as §1, §2, §4

[12] = test system: Candida parapsilosis (MY1010); experiment: broth microdilution antifungal assay, Candida parapsilosis MY1010; conditions: Lodderomyces parapsilosis
Protocol: as §1, §2, §4

Candida krusei = experiment: broth microdilution antifungal assay, Candida krusei; conditions: Pichia kudriavzevii
Protocol: as §1, §2, §4

[13] = test system: Candida glabrata (MY1381); experiment: broth microdilution antifungal assay, Candida glabrata MY1381; conditions: Nakaseomyces glabratus
Protocol: as §1, §2, §4

[14] = 24 hours, 35°-37° C., read-out: Minimum Inhibitory Concentration (MIC)
[15] = severe morphological change, scored macroscopically after 24 hours, read-out: Minimum Effective Concentration (MEC)
[16] = no growth or growth of ≤4 colonies on SDA, read-out: Minimum Fungicidal Concentration (MFC)
[17] = SDA incubated 48 hours, no growth or growth of ≤4 colonies, read-out: Minimum Fungicidal Concentration (MFC)
[18] = read at 48 hours, 35°-37° C., read-out: Minimum Inhibitory Concentration (MIC)

With `CC(CCC(O)C(C)(O)CO)C1(O)CCC2(C)C3=C(CCC21C)C1(C)CCC(OC(=O)CCC(=O)O)C(C)(C)C1CC3` (centres unmarked) [Compound I] the MIC [1, 14] was > 64 mg/L, the minimal effective concentration [1, 15] was 0.5 µg/mL and the MIC [2, 14] was 8 mg/L (≈ 13.5 µM). It also gave an MFC [2, 16] of 8 mg/L (≈ 13.5 µM), an MIC [3, 14] of 64 mg/L (≈ 108 µM) and a minimal effective concentration [3, 15] of 1 µg/mL. The “effectiveness against a panel of fungi relative to amphotericin B” value (panel of fungi) was “at concentrations comparable to an established antifungal agent, amphotericin B”, the “inhibition of growth of the fungal organisms (inhibition zones)” value (filamentous fungi) was “effectively inhibit growth of the fungal organisms” and the MIC [4, 14] was 2 mg/L (≈ 3.37 µM). The MFC [4, 16] was 2 mg/L (≈ 3.37 µM), the MIC [5, 14] was 8 mg/L (≈ 13.5 µM) and the MFC [5, 16] was 8 mg/L (≈ 13.5 µM). For the same molecule, the MIC (Candida albicans (CA2); [14]) was 16 mg/L (≈ 27 µM), the MFC (Candida albicans (CA2); [16]) was 16 mg/L (≈ 27 µM) and the MFC [6, 17] was 64 mg/L (≈ 108 µM). For the same molecule, the MIC [6, 18] was 32 mg/L (≈ 54 µM), the MIC [7, 14] was 16 mg/L (≈ 27 µM) and the MFC [7, 16] was 16 mg/L (≈ 27 µM). For the same molecule, the MIC [8, 14] was 4 mg/L (≈ 6.75 µM), the MFC [8, 16] was 4 mg/L (≈ 6.75 µM) and the MFC [9, 17] was 32 mg/L (≈ 54 µM). The MIC [9, 18] was > 64 mg/L, the MIC [10, 14] was 64 mg/L (≈ 108 µM) and the MFC [10, 16] was 64 mg/L (≈ 108 µM). For the same molecule, the MIC [11, 14] was 8 mg/L (≈ 13.5 µM), the MFC [11, 16] was 8 mg/L (≈ 13.5 µM) and the MIC [12, 14] was 4 mg/L (≈ 6.75 µM). It also gave an MFC [12, 16] of 2 mg/L (≈ 3.37 µM), an MIC (Candida krusei; [14]) of 4 mg/L (≈ 6.75 µM) and an MFC (Candida krusei; [16]) of 2 mg/L (≈ 3.37 µM). For the same molecule, the MIC [13, 14] was 2 mg/L (≈ 3.37 µM) and the MFC [13, 16] was 1 mg/L (≈ 1.69 µM).
